Experiments:
human DC = experiment: Human DC maturation (CD86 upregulation) in coculture with human iNKT cells and lipids; type: cell-based; details: compared to ThrCer; comparable to α‐GalCer; 40 h
Experimental: Figure 1 ThrCer 6 and ThrCer 7 are potent human iNKT‐cell agonists and display a prolonged interaction with the iNKT‐cell TCR when in complex with human CD1d molecules. (A) The structures of α‐GalCer and non‐glycosidic analogs ThrCer, ThrCer 6, and ThrCer 7 are shown. (B) Equilibrium binding and kinetics measurements of a soluble human iNKT‐cell TCR were assessed for hCD1d molecules refolded with α‐GalCer, ThrCer, ThrCer 6, and ThrCer 7. K d values (μM) were calculated from equilibrium binding. (C and D) iNKT‐cell agonists were added to human CD1d C1R cells at various concentrations. After incubating overnight, the degree of iNKT‐cell recognition, assessed either (C) by using a tetrameric human iNKT‐cell TCR by flow cytometry or (D) by the addition of human iNKT cells to cultures and determining the amount of IFN‐γ released in supernatant by ELISA. (E) Human DC maturation was assessed following coculture with human iNKT cells and l μg lipids after 40 h, as determined by CD86 upregulation on DC by flow cytometry. Median fluorescent intensity = MFI. (D and E) Error bars are mean ± SEM (triplicate wells). […]
To this end, hCD1d‐expressing C1R cells were loaded overnight with serial dilutions of lipids (α‐GalCer, ThrCer, ThrCer 6, and ThrCer 7) and then incubated with human iNKT cells. iNKT‐cell activation was assessed by measuring IFN‐γ production in the supernatant by ELISA. […]

[1] = system: OVA‐specific CD8+ T cells; experiment: OVA‐specific CD8+ T‐cell response after OVA plus lipid i.v. (H‐2Kb/OVA257–264 tetramer); type: in vivo, mice
Experimental: In order to assess the downstream effect of treatment with low concentrations of lipid in vivo, mice were injected with the model antigen OVA together with two different doses of ThrCer 6 and α‐GalCer. Seven days later, OVA‐specific CD8^+ T cells were detected in the blood by H‐2 K^b/OVA257–264 tetramer staining of CD8^+ T cells.
(A and B) Mice were given 400 μg OVA together with i.v. injection of vehicle or 10 or 750 ng of either α‐GalCer or ThrCer 6. OVA‐specific CD8^+ T cells were enumerated in the blood using tetrameric H‐2K^b/OVA257–264 flow cytometry at (A) day 7 and at (B) day 12. Each square or circle represents the data for a single mouse (n = 4–6/group). Data shown as mean ± SEM and are representative of three independent experiments. **p = 0.0012, *p = 0.0114; Student's t‐test.
Mice were bled on day 7 post immunization of lipids and peripheral blood lymphocytes (PBL) stained with tetrameric H‐2 K^b/OVA257–264 peptide complexes, as previously described 27. A representative tetramer staining is shown in Supporting Information Figure 4.

iNKT hybridoma DN32.D3 = experiment: Lipid‐pulsed, washed BMDC stimulation of iNKT hybridoma DN32.D3 (IL‐2); type: cell-based, mouse; details: 10 and 1 ng agonist; up to 24 h after wash; compared with α‐GalCer
Experimental: The difference between the functional activity of ThrCer 6 and α‐GalCer, particularly noticeable at low concentrations, may be accounted for by differences in their bioavailability. To address this possibility, bone marrow (BM) derived DC were incubated with a range of different iNKT‐cell agonists at different concentrations overnight, then washed and incubated with fresh media for increasing lengths of time. Lipid‐pulsed DC were then used to stimulate the iNKT‐hybridoma DN32.D3 (Fig. 6A). […] The difference between the ThrCer 6 and ThrCer 7 analogs and α‐GalCer started to be evident as early as 3 h after lipid‐pulsed DC were washed (Fig. 6A).
Figure 6 Enhanced bioavailability of ThrCer 6 as compared to ThrCer and α‐GalCer. (A) Mouse BMDCs were pulsed for 6 h with 100, 10, or 1 ng/mL of indicated iNKT‐cell agonists. […] Diminished bioavailability is expressed as a percentage of the maximum DN32.D3 activation by each iNKT‐cell agonist. […] (B) IL‐2 in the supernatant from coculture of DN32.D3 with CD11c^+ cells isolated after 64 h was determined by ELISA. […] Significance was calculated between α‐GalCer and ThrCer 6. *p < 0.05, **p < 0.01, ***p < 0.001, ****p < 0.0001; Student's t‐test.
Levels of iNKT‐cell agonists, presented by CD1d on the surface of cells, were assessed by the amount of IL‐2 secreted by iNKT hybridoma DN32.D3 coincubated with the presenting cells for 17–24 h. […]

Compound | Human DC maturation (CD86 upregulation) (human DC) | Frequency of OVA‐specific CD8+ T cells, 10 ng lipid ([1]; 10 ng i.v. with 400 μg OVA, day 7, compared with 10 ng α‐GalCer) | Frequency of OVA‐specific CD8+ T cells, 10 ng lipid, day 12 ([1]; 10 ng i.v. with OVA, day 12, higher frequency than α‐GalCer) | Activation of DN32.D3 by lipid‐pulsed, washed BMDC (iNKT hybridoma DN32.D3)
CCCCCCCCCCCCCCCCCCCCCCCCCC(=O)N[C@@H](CO[C@H]1CC[C@H](O)[C@H](O)[C@H]1O)[C@H](O)[C@H](O)CCCCCCCCCCCCCC [ThrCer 6] | improved ability | statistically significant higher frequency | persisted at day 12 | enhanced ability to activate DN32.D3
CCCCCCCCCCCCCCCCCCCCCCCCCC(=O)NC(COC1CCCC(O)C(O)C1O)C(O)C(O)CCCCCCCCCCCCCC (centres unmarked) [ThrCer 7] | improved ability | – | – | –

Source: paper PMC4913735, “Non‐glycosidic compounds can stimulate both human and mouse iNKT cells” (European Journal of Immunology, 2016)
